Among the data in PubChem BioAssay (NCI) are GI50 and TGI values, retold here.

Among the test systems are NCI/ADR-RES ovarian; RPMI-8226 leukemia; SW-620 colon; RXF 393 renal; EKVX NSCLC; IGROV1 ovarian; OVCAR-3 ovarian; NCI-H522 lung; SK-MEL-5 melanoma; HCT-116 colon.
Common to all, as to test: inhibition of tumour cell growth, NCI panel, 48 h

Values joined by “and” are separate entries in the source; they are usually repeats but may differ in a detail not shown here. Equal values may be shown once.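 Compound exposure: 48 hours, 5 concentrations, 96-well plates. The concentration for 50% growth inhibition is given as GI50. At the TGI there is no net growth.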 Where only a bound is given, the exact number is not on record here.

Turning to `CC(C)[C@@H](C(=O)O[C@@H]1/C=C/C(=O)O[C@@H](C)CCC/C=C/[C@@H]2C[C@H](O)C[C@H]21)N(C)C`, the GI50 in the assay with NCI/ADR-RES ovarian is 24.6 µM; in the assay on RPMI-8226 leukemia it was 3.93 µM; with SW-620 colon, 7.03 µM; in the assay on RXF 393 renal, 7.33 µM; in the assay on EKVX NSCLC, 12.5 µM; in the assay on IGROV1 ovarian, 30.3 µM. Moreover, the GI50 was 6.34 µM in the assay on OVCAR-3 ovarian, 26.6 µM with NCI-H522 lung, 2.25 µM with SK-MEL-5 melanoma and 22.3 µM in the assay with HCT-116 colon. Besides, the TGI in the assay on NCI/ADR-RES ovarian was above 93.6 µM; in the assay with RPMI-8226 leukemia, 27.1 µM; in the assay with SW-620 colon, 20.7 µM; with RXF 393 renal it was 44.1 µM; in the assay with EKVX NSCLC it was 64.9 µM; in the assay on IGROV1 ovarian, above 89 µM. The TGI in the assay with OVCAR-3 ovarian is 26.7 µM; in the assay on NCI-H522 lung, above 75 µM; in the assay with SK-MEL-5 melanoma it was 5.37 µM; in the assay on HCT-116 colon, 64.4 µM.
Turning to `C[C@]12CCC(=O)C=C1C[C@@H](O)[C@@H]1[C@@H]2CC[C@@]2(C)[C@H]1CC[C@]2(C)O`, the TGI in the assay on NCI/ADR-RES ovarian, in the assay with RPMI-8226 leukemia, in the assay with SW-620 colon, with RXF 393 renal, with EKVX NSCLC and with IGROV1 ovarian was above 100 µM each time. The TGI in the assay with OVCAR-3 ovarian, with NCI-H522 lung, with SK-MEL-5 melanoma and in the assay with HCT-116 colon was above 100 µM in each case.
As for `CCC(=O)OCOc1ccc(/C=C2\CCC(CN(C)C)C2=O)cc1` (centres undefined), the TGI in the assay on NCI/ADR-RES ovarian was 6.78 µM; in the assay on RPMI-8226 leukemia it was above 23.3 µM; in the assay on SW-620 colon it was 7.38 µM; in the assay with RXF 393 renal, 9.55 µM; in the assay with EKVX NSCLC it was 37.9 µM; in the assay with IGROV1 ovarian, 16.3 µM. For the same compound, the TGI with OVCAR-3 ovarian is 8.29 µM; in the assay with NCI-H522 lung it was 4.41 µM; in the assay on SK-MEL-5 melanoma it was 26.6 µM; in the assay on HCT-116 colon, 18.2 µM.
On to `Cc1c(C(=O)Nc2ccc(N3C[C@@H](C)O[C@@H](C)C3)nc2)cccc1-c1ccc(OC(F)(F)F)cc1`, for which the GI50 was 5.69 µM and 13.5 µM with NCI/ADR-RES ovarian; 5.7 µM and 12 µM in the assay on RPMI-8226 leukemia; 10.6 µM and 13.9 µM in the assay on SW-620 colon; 12.3 µM and 13.7 µM in the assay with RXF 393 renal; 5.73 µM and 4.55 µM with EKVX NSCLC; 9.63 µM and 11.6 µM in the assay on IGROV1 ovarian. The GI50 in the assay on OVCAR-3 ovarian is 6.23 µM and 5.13 µM; with NCI-H522 lung, 9.14 µM and 10.2 µM; in the assay on SK-MEL-5 melanoma, 3.83 µM and 5.23 µM; in the assay with HCT-116 colon, 3.4 µM and 3.85 µM. Further, the TGI with NCI/ADR-RES ovarian is 26.6 µM and 42.1 µM; with RPMI-8226 leukemia, above 100 µM; in the assay with SW-620 colon, > 88.4 µM and 93.3 µM; in the assay on RXF 393 renal, 29.2 µM and 32.1 µM; in the assay on EKVX NSCLC, 28.4 µM and 34.2 µM; in the assay with IGROV1 ovarian, 37.5 µM and 33.6 µM. The TGI was 24 µM and 24.2 µM with OVCAR-3 ovarian; 33.9 µM and 34.9 µM in the assay with NCI-H522 lung; 20.8 µM and 38.3 µM in the assay on SK-MEL-5 melanoma; above 100 µM in the assay with HCT-116 colon.
In the case of `CC(=O)C1=C(C)N(Cc2ccccc2)C2(O)C=CC(=O)C3=C(O)c4ccccc4C(=O)C312` (centres undefined), the GI50 is 3.02 µM in the assay with NCI/ADR-RES ovarian; 2.35 µM with RPMI-8226 leukemia; 2.24 µM in the assay with SW-620 colon; 3.27 µM in the assay on RXF 393 renal; 16.4 µM in the assay with EKVX NSCLC; 6.2 µM in the assay on IGROV1 ovarian. The GI50 in the assay with OVCAR-3 ovarian was 1.42 µM; in the assay with NCI-H522 lung, 7.3 µM; in the assay with SK-MEL-5 melanoma, 3.63 µM; in the assay with HCT-116 colon it was 1.99 µM. Also, the TGI in the assay on NCI/ADR-RES ovarian was above 100 µM; in the assay with RPMI-8226 leukemia it was 6.38 µM; with SW-620 colon, 5.22 µM; in the assay on RXF 393 renal it was 17.5 µM; in the assay with EKVX NSCLC it was 33.8 µM; in the assay on IGROV1 ovarian it was above 100 µM. Further, the TGI is 3.14 µM in the assay with OVCAR-3 ovarian, above 100 µM with NCI-H522 lung, 12.5 µM in the assay with SK-MEL-5 melanoma and 3.86 µM in the assay with HCT-116 colon.
Turning to `CC1Cc2c(Cl)ncnc2N(C)c2ccccc21` (centres undefined), the GI50 in the assay with NCI/ADR-RES ovarian is 2.69 µM; in the assay with RPMI-8226 leukemia it was 3.54 µM; in the assay with SW-620 colon, 3.08 µM; in the assay on RXF 393 renal it was 2.57 µM; in the assay with EKVX NSCLC, 3.13 µM; in the assay on IGROV1 ovarian, 3.78 µM. Besides, the GI50 was 3.4 µM in the assay on OVCAR-3 ovarian, 1.76 µM in the assay with NCI-H522 lung, 1.85 µM in the assay with SK-MEL-5 melanoma and 3.96 µM in the assay on HCT-116 colon. The TGI was 12.4 µM with NCI/ADR-RES ovarian; 16.4 µM in the assay with RPMI-8226 leukemia; 11.2 µM with SW-620 colon; 6.05 µM in the assay on RXF 393 renal; above 100 µM in the assay with EKVX NSCLC; above 100 µM in the assay with IGROV1 ovarian. Also, the TGI amounted to 20.1 µM with OVCAR-3 ovarian, 3.7 µM with NCI-H522 lung, 3.62 µM with SK-MEL-5 melanoma and 80.3 µM in the assay with HCT-116 colon.
For the compound `O=C1/C=C/[C@@H](O)[C@@H]2C[C@@H](O)C[C@H]2/C=C/CCC[C@H](CCO)O1`, the GI50 is 0.176 µM in the assay with NCI/ADR-RES ovarian; 0.33 µM with RPMI-8226 leukemia; 0.216 µM in the assay with SW-620 colon; 0.0272 µM in the assay with RXF 393 renal; 0.253 µM in the assay on EKVX NSCLC; 0.382 µM with IGROV1 ovarian. The GI50 in the assay with OVCAR-3 ovarian is 0.193 µM; in the assay with NCI-H522 lung it was 0.211 µM; with SK-MEL-5 melanoma it was 0.0201 µM; in the assay on HCT-116 colon, 0.215 µM. The TGI is 6.34 µM with RPMI-8226 leukemia; 0.646 µM in the assay with SW-620 colon; 0.117 µM in the assay with RXF 393 renal; above 100 µM in the assay on EKVX NSCLC; above 100 µM in the assay with IGROV1 ovarian; 0.5 µM with OVCAR-3 ovarian. Moreover, the TGI in the assay with NCI-H522 lung was determined as 0.604 µM; in the assay on SK-MEL-5 melanoma it was 0.0423 µM; in the assay on HCT-116 colon it was 0.454 µM.
Consider `O=C1C2=C(C(=O)c3ccccc31)C(O)(S(=O)(=O)O)C(O)(S(=O)(=O)O)C1N=CC=CC21` (centres undefined), for which the GI50 with NCI/ADR-RES ovarian was 2.45 µM and 1.27 µM; in the assay with RPMI-8226 leukemia, 4.99 µM and 3.99 µM; in the assay on SW-620 colon it was 3.65 µM and 4.29 µM; in the assay with RXF 393 renal, 5.73 µM and 2.98 µM; in the assay with EKVX NSCLC it was 3.32 µM and 2.71 µM; in the assay with IGROV1 ovarian it was 2.19 µM. Moreover, the GI50 in the assay with OVCAR-3 ovarian was 2.33 µM and 2.86 µM; in the assay on NCI-H522 lung, 4.8 µM and 2.13 µM; with SK-MEL-5 melanoma, 3.96 µM and 3.63 µM; in the assay on HCT-116 colon it was 3.34 µM and 2.81 µM. Besides, the TGI in the assay with NCI/ADR-RES ovarian was 18.6 µM and 23.7 µM; in the assay on RPMI-8226 leukemia it was > 100 µM and 27.6 µM; in the assay on SW-620 colon, 96.9 µM and 17.2 µM; in the assay on RXF 393 renal, 28.6 µM and 11.9 µM; in the assay with EKVX NSCLC, 31.9 µM and 14.5 µM; in the assay with IGROV1 ovarian, 9.5 µM. The TGI is 6.78 µM and 11.7 µM in the assay on OVCAR-3 ovarian; 39.6 µM and 5.71 µM in the assay with NCI-H522 lung; 16.3 µM and 14.5 µM in the assay on SK-MEL-5 melanoma; 20.1 µM and 12.7 µM in the assay with HCT-116 colon.
